Each compound was assayed against HCV NS5B RNA-dependent RNA polymerase (Hepatitis C virus genotype 1b, UniProt P26663) (assay: In vitro RNA-dependent RNA polymerase assay (Assay 1), polyA/oligo dT, TCA precipitation). Conditions: not given.
Assay type: biochemical
Protocol: Purification of Recombinant NS5B Using Fast Protein Liquid Chromatography (FPLC):
Soluble NS5B protein in the S3 fraction was diluted to lower the NaCl concentration to 300 mM, then it incubated batchwise with DEAE sepharose beads (Amersham-Pharmacia) for 2 hrs at 4° C., as described by Behrens et al. (1996). Unbound material was cleared by centrifugation for 15 min at 4° C., at 25,000 rpm using a SW41 rotor (Beckman). The supernatant was further diluted to lower the NaCl concentration to 200 mM and subsequently loaded, with a flow rate of 1 ml/min, on a 5 ml HiTrap® heparin column (Amersham-Pharmacia) connected to an FPLC® system (Amersham-Pharmacia). Bound proteins were eluted in 1 ml fractions, using a continuous NaCl gradient of 0.2 to 1 M, over a 25 ml volume. NS5B-containing fractions were identified by sodium dodecyl sulfate polyacrylamide gel electrophoresis (SDS-PAGE), followed by western blotting using the anti-NS5B antiserum at a dilution of 1:2000. Positive fractions were pooled and the elution buffer was exchanged against a 50 mM NaPO4 pH 7.0, 20% glycerol, 0.5% triton X-100 and 10 mM DTT, using a PD-10 column (Amersham-Pharmacia). The sample was then loaded onto a 1 ml HiTrap® SP column (Amersham-Pharmacia), with a flow rate of 0.1 ml/min. Bound proteins were eluted using a continuous 0 to 1 M NaCl gradient over a 15 ml volume. Eluted fractions were analyzed by SDS-PAGE and western blotting. Alternatively, proteins were visualized, following SDS-PAGE, by silver staining using the Silver Stain Plus kit (BioRad) as described by the manufacturer. […]
In vitro RNA-dependent RNA Polymerase Assays Used to Evaluate Biaryl Analogues (Assay 1):
RdRp assays were conducted using the homopolymeric template/primer polyA/oligo dT. All RdRp reactions were performed in a total volume of 50 μl, and in a basic buffer consisting of 20 mM Tris-HCl pH 7.5, 1 mM DTT, 50 mM NaCl, 5 mM MgCl2, 0.5 μCi […] (3000 Ci/mmol), 15 μM cold UTP and 20 U RNasin (Promega). Standard HCV RdRp reactions contained 200 ng of purified NS5B protein. PolyA RNAs (Amersham-Pharmacia) was resuspended at 400 ng/μl. The primer oligodT15 (Canadian life technologies) was diluted to a concentration of […] (7.6 ng/μl). Templates and primers were mixed volume to volume, denatured at 95° C. for 5 min and annealed at 37° C. for 10 min. Following a two hour incubation at 22° C., reactions were stopped by the addition of 100 μg of sonicated salmon sperm DNA (Life Technologies) and 1 ml of 10% trichloroacetic acid-0.5% tetrasodium pyrophosphate (TCA-PPi). Nucleic acids were precipitated at 4° C. for 30 min after which samples were filtered on GF/C glass microfiber filters (Millipore). Membranes were subsequently washed with 25 ml of a 1% TCA-0.1% PPi solution, then air dried. Incorporated radioactivity was quantified using a liquid scintillation counter (1450-Microbeta, Wallac). Results are shown in Table 1, in the column indicated as Assay 1.

Sequence of HCV NS5B RNA-dependent RNA polymerase (P26663 2420-3010 limits assumed): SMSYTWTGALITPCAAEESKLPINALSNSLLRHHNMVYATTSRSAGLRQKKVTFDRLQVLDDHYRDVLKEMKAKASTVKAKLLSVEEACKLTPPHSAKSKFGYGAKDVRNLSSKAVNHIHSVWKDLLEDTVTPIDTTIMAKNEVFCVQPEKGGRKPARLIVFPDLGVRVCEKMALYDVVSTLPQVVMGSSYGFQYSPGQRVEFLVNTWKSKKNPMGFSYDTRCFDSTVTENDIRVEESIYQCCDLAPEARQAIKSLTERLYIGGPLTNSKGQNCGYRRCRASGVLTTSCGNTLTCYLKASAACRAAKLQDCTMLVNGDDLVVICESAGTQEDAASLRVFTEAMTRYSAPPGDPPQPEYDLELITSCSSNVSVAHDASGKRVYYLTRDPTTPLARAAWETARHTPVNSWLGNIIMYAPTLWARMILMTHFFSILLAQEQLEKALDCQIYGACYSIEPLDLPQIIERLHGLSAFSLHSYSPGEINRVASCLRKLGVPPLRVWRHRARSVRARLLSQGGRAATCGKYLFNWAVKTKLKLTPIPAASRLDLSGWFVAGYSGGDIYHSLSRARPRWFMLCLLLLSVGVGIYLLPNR

Row | Structure (SMILES) | IC50 [µM]
1 | O=C(O)[C@H](Cc1ccccc1)N(Cc1ccc(Br)s1)C(=O)c1ccc(Cl)cc1Cl [compound #82, (2s)-2-[(5-Bromo-thiophen-2-ylmethyl)-(2,4-dichloro-benzoyl)-amino]-3-phenyl-propionic acid] | < 5
2 | O=C(O)[C@H](Cc1ccccc1)N(Cc1ccc(-c2cc3ccccc3o2)s1)C(=O)c1ccc(Cl)cc1Cl [compound #85, (2s)-2-[(5-Benzofuran-2-yl-thiophen-2-ylmethyl)-(2,4-dichloro-benzoyl)-amino]-3-phenyl-propionic acid] | < 5

Same assay, conditions: polyA/oligo dT template/primer, 200 ng NS5B, 2 h at 22° C.; read-out: RNA pol Assay 1 IC50 (μm)

Row | Structure (SMILES) | IC50 [µM]
3 | O=C(O)[C@H](Cc1ccccc1)N(Cc1ccc(-c2cc(C(F)(F)F)ccc2Cl)o1)C(=O)c1ccc(Cl)cc1Cl [compound #61, (2s)-2-[[5-(2-Chloro-5-trifluoromethyl-phenyl)-furan-2-ylmethyl]-(2,4-dichloro-benzoyl)-amino]-3-phenyl-propionic acid] | < 5
4 | O=C(O)[C@H](Cc1ccccc1)N(Cc1ccc(-c2ccccc2[N+](=O)[O-])o1)C(=O)c1ccc(Cl)cc1Cl [compound #62, (2s)-2-{(2,4-Dichloro-benzoyl)-[5-(2-nitro-phenyl)-furan-2-ylmethyl]-amino}-3-phenyl-propionic acid] | < 5
5 | O=C(O)C[C@H](Cc1ccccc1)N(Cc1ccc(-c2cccc(C(F)(F)F)c2)o1)C(=O)c1ccc(Cl)cc1Cl [compound #63, (3s)-3-{(2,4-Dichloro-benzoyl)-[5-(3-trifluoromethyl-phenyl)-furan-2-ylmethyl]-amino}-4-phenyl-butyric acid] | < 5
6 | O=C(O)[C@H](Cc1ccccc1)N(Cc1ccc(-c2ccc(Cl)c(Cl)c2)o1)C(=O)c1ccc(Cl)cc1Cl [compound #65, (2s)-2-{(2,4-Dichloro-benzoyl)-[5-(3,4-dichloro-phenyl)-furan-2-ylmethyl]-amino}-3-phenyl-propionic acid] | < 5
7 | O=C(O)[C@H](Cc1ccccc1)N(Cc1ccc(-c2ccc(Cl)cc2Cl)o1)C(=O)c1ccc(Cl)cc1Cl [compound #67, (2s)-2-{(2,4-Dichloro-benzoyl)-[5-(2,4-dichloro-phenyl)-furan-2-ylmethyl]-amino}-3-phenyl-propionic acid] | < 5
8 | O=C(O)[C@H](Cc1ccccc1)N(Cc1ccc(Br)o1)C(=O)c1ccc(Cl)cc1Br [compound #68, (2s)-2-[(2-Bromo-4-chloro-benzoyl)-(5-bromo-furan-2-ylmethyl)-amino]-3-phenyl-propionic acid] | < 5
9 | O=C(O)[C@H](Cc1ccccc1)N(Cc1ccc(-c2ccc(F)c(Cl)c2)o1)C(=O)c1ccc(Cl)cc1Cl [compound #69, (2s)-2-[[5-(3-Chloro-4-fluoro-phenyl)-furan-2-ylmethyl]-(2,4-dichloro-benzoyl)-amino]-3-phenyl-propionic acid] | < 5
10 | O=C(O)[C@H](Cc1ccccc1)N(Cc1ccc(-c2ccc(Cl)c(F)c2)o1)C(=O)c1ccc(Cl)cc1Cl [compound #70, (2s)-2-[[5-(4-Chloro-3-fluoro-phenyl)-furan-2-ylmethyl]-(2,4-dichloro-benzoyl)-amino]-3-phenyl-propionic acid] | < 5
11 | O=C(O)[C@H](Cc1ccccc1)N(Cc1ccc(Br)o1)C(=O)c1ccc(Cl)cc1I [compound #71, (2s)-2-[(5-Bromo-furan-2-ylmethyl)-(4-chloro-2-iodo-benzoyl)-amino]-3-phenyl-propionic acid] | < 5
12 | CCOC(=O)c1ccccc1-c1ccc(CN(C(=O)c2ccc(Cl)cc2Cl)[C@@H](Cc2ccccc2)C(=O)O)o1 [compound #72, (2s)-2-(5-{[(1s-1-Carboxy-2-phenyl-ethyl)-(2,4-dichloro-benzoyl)-amino]-methyl}-furan-2-yl)-benzoic acid ethyl ester] | < 5
13 | O=C(O)c1ccccc1-c1ccc(CN(C(=O)c2ccc(Cl)cc2Cl)[C@@H](Cc2ccccc2)C(=O)O)o1 [compound #73, (2s)-2-(5-{[(1-Carboxy-2-phenyl-ethyl)-(2,4-dichloro-benzoyl)-amino]-methyl}-furan-2-yl)-benzoic acid] | < 5
14 | O=C(O)[C@H](Cc1ccccc1)N(Cc1ccc(-c2nccs2)o1)C(=O)c1ccc(Cl)cc1Cl [compound #74, (2s)-2-[(2,4-Dichloro-benzoyl)-(5-thiazol-2-yl-furan-2-ylmethyl)-amino]-3-phenyl-propionic acid] | < 5
15 | O=C(O)[C@H](Cc1ccccc1)N(Cc1ccco1)C(=O)c1ccc(Cl)cc1Cl [compound #75, (2s)-2-[(2,4-Dichloro-benzoyl)-furan-2-ylmethyl-amino]-3-phenyl-propionic acid] | 5 to 20
16 | O=C(O)c1cccc(-c2ccc(CN(C(=O)c3ccc(Cl)cc3Cl)[C@@H](Cc3ccccc3)C(=O)O)o2)c1 [compound #76, (2s)-3-(5-{[(1s-1-Carboxy-2-phenyl-ethyl)-(2,4-dichloro-benzoyl)-amino]-methyl}-furan-2-yl)-benzoic acid] | < 5
17 | O=C(O)c1ccc(-c2ccc(CN(C(=O)c3ccc(Cl)cc3Cl)[C@@H](Cc3ccccc3)C(=O)O)o2)cc1 [compound #77, (2s)-4-(5-{[(1s-1-Carboxy-2-phenyl-ethyl)-(2,4-dichloro-benzoyl)-amino]-methyl}-furan-2-yl)-benzoic acid] | < 5
18 | O=C(O)[C@H](Cc1ccccc1)N(Cc1ccc(-c2cccc(C(F)(F)F)c2)o1)C(=O)c1ccc(Cl)cc1Br [compound #78, (2s)-2-{(2-Bromo-4-chloro-benzoyl)-[5-(3-trifluoromethyl-phenyl)-furan-2-ylmethyl]-amino}-3-phenyl-propionic acid] | < 5
19 | O=C(O)[C@H](Cc1ccccc1)N(Cc1ccc(-c2cc(F)cc(F)c2)o1)C(=O)c1ccc(Cl)cc1Cl [compound #79, (2s)-2-{(2,4-Dichloro-benzoyl)-[5-(3,5-difluoro-phenyl)-furan-2-ylmethyl]-amino}-3-phenyl-propionic acid] | < 5
20 | Cc1cccc(-c2ccc(CN(C(=O)c3ccc(Cl)cc3Cl)[C@@H](Cc3ccccc3)C(=O)O)o2)c1 [compound #80, (2s)-2-[(2,4-Dichloro-benzoyl)-(5-m-tolyl-furan-2-ylmethyl)-amino]-3-phenyl-propionic acid] | < 5
21 | O=C(O)[C@H](Cc1ccccc1)N(Cc1ccc(-c2cccc(F)c2)o1)C(=O)c1ccc(Cl)cc1Cl [compound #81, (2s)-2-{(2,4-Dichloro-benzoyl)-[5-(3-fluoro-phenyl)-furan-2-ylmethyl]-amino}-3-phenyl-propionic acid] | < 5
22 | O=C(O)c1ccc(-c2ccc(CN(C(=O)c3ccc(Cl)cc3Cl)[C@@H](Cc3ccccc3)C(=O)O)s2)cc1 [compound #83, (2s)-4-(5-{[(1s-1-Carboxy-2-phenyl-ethyl)-(2,4-dichloro-benzoyl)-amino]-methyl}-thiophen-2-yl)-benzoic acid] | < 5
23 | COC(=O)c1ccc(-c2ccc(CN(C(=O)c3ccc(Cl)cc3Cl)[C@@H](Cc3ccccc3)C(=O)O)s2)cc1 [compound #84, (2s)-4-(5-{[(1-Carboxy-2-phenyl-ethyl)-(2,4-dichloro-benzoyl)-amino]-methyl}-thiophen-2-yl)-benzoic acid methyl ester] | < 5
24 | O=C(O)[C@H](Cc1ccccc1)N(Cc1cc(-c2ccc(Cl)c(Cl)c2)cs1)C(=O)c1ccc(Cl)cc1Cl [compound #87, (2s)-2-{(2,4-Dichloro-benzoyl)-[4-(3,4-dichloro-phenyl)-thiophen-2-ylmethyl]-amino}-3-phenyl-propionic acid] | < 5
25 | O=C(O)[C@H](Cc1ccccc1)N(Cc1cc(-c2ccc(Cl)c(F)c2)cs1)C(=O)c1ccc(Cl)cc1Cl [compound #88, (2s)-2-[[4-(4-Chloro-3-fluoro-phenyl)-thiophen-2-ylmethyl]-(2,4-dichloro-benzoyl)-amino]-3-phenyl-propionic acid] | < 5
26 | O=C(O)[C@H](Cc1ccccc1)N(Cc1cc(-c2ccc(F)c(Cl)c2)cs1)C(=O)c1ccc(Cl)cc1Cl [compound #89, (2s)-2-[[4-(3-Chloro-4-fluoro-phenyl)-thiophen-2-ylmethyl]-(2,4-dichloro-benzoyl)-amino]-3-phenyl-propionic acid] | < 5

From patent publication US20030229053A1, “Compounds and methods for the treatment or prevention of flavivirus infections” (Shire BioChem Inc., priority 2001, published 2003)
